Results as given in BigSolDB 2.1.

CC(C)(Oc1ccc(CCNC(=O)c2ccc(Cl)cc2)cc1)C(=O)O
Conditions | solubility (mole fraction)
in 2-butanone, 283.14 K | 0.00191
in 2-butanone, 288.16 K | 0.00227
in 2-butanone, 293.17 K | 0.00268
in 2-butanone, 298.16 K | 0.00312
in 2-butanone, 303.17 K | 0.0037
in 2-butanone, 308.14 K | 0.00436
in 2-butanone, 313.16 K | 0.00505
in 2-butanone, 318.17 K | 0.0058
in 2-butanone, 323.16 K | 0.00685
in acetonitrile, 283.24 K | 0.000113
in acetonitrile, 288.25 K | 0.000153
in acetonitrile, 293.24 K | 0.000202
in acetonitrile, 298.25 K | 0.000274
in acetonitrile, 303.24 K | 0.000355
in acetonitrile, 308.22 K | 0.00047
in acetonitrile, 313.22 K | 0.000625
in acetonitrile, 318.23 K | 0.000809
in acetonitrile, 323.24 K | 0.00103
in cyclohexanone, 283.14 K | 0.00496
in cyclohexanone, 288.19 K | 0.00605
in cyclohexanone, 293.24 K | 0.00732
in cyclohexanone, 298.14 K | 0.00891
in cyclohexanone, 303.27 K | 0.0107
in cyclohexanone, 308.13 K | 0.0128
in cyclohexanone, 313.19 K | 0.0152
in cyclohexanone, 318.22 K | 0.0177
in cyclohexanone, 323.22 K | 0.0204
in ethanol, 283.14 K | 0.00258
in ethanol, 288.24 K | 0.00282
in ethanol, 293.3 K | 0.00329
in ethanol, 298.28 K | 0.00391
in ethanol, 303.24 K | 0.00465
in ethanol, 308.22 K | 0.00538
in ethanol, 313.13 K | 0.00664
in ethanol, 318.18 K | 0.00802
in ethanol, 323.24 K | 0.00972
in ethyl acetate, 283.17 K | 0.000557
in ethyl acetate, 288.17 K | 0.000665
in ethyl acetate, 293.16 K | 0.000789
in ethyl acetate, 298.14 K | 0.000994
in ethyl acetate, 303.17 K | 0.0012
in ethyl acetate, 308.14 K | 0.00147
in ethyl acetate, 313.17 K | 0.00178
in ethyl acetate, 318.16 K | 0.0022
in ethyl acetate, 323.19 K | 0.00262
in isobutanol, 282.95 K | 0.00115
in isobutanol, 288.04 K | 0.0015
in isobutanol, 292.93 K | 0.00203
in isobutanol, 298.24 K | 0.0026
in isobutanol, 303.2 K | 0.00316
in isobutanol, 308.22 K | 0.00396
in isobutanol, 313.23 K | 0.00489
in isobutanol, 318.17 K | 0.00603
in isobutanol, 323.2 K | 0.00742
in isopentanol, 283.77 K | 0.00149
in isopentanol, 288.56 K | 0.00196
in isopentanol, 293.5 K | 0.00248
in isopentanol, 298.59 K | 0.00304
in isopentanol, 303.13 K | 0.00365
in isopentanol, 308.21 K | 0.00452
in isopentanol, 313.25 K | 0.00555
in isopentanol, 318.17 K | 0.00672
in isopentanol, 323.25 K | 0.00817
in isopropanol, 283.06 K | 0.00146
in isopropanol, 288.14 K | 0.00195
in isopropanol, 293.19 K | 0.00245
in isopropanol, 298.24 K | 0.00302
in isopropanol, 303.21 K | 0.00371
in isopropanol, 308.16 K | 0.00462
in isopropanol, 313.14 K | 0.0057
in isopropanol, 318.22 K | 0.00705
in isopropanol, 323.2 K | 0.00852
in methanol, 283.12 K | 0.00233
in methanol, 288.24 K | 0.00248
in methanol, 293.26 K | 0.00282
in methanol, 298.17 K | 0.00333
in methanol, 303.12 K | 0.00408
in methanol, 308.14 K | 0.00498
in methanol, 313.13 K | 0.00614
in methanol, 318.14 K | 0.00754
in methanol, 323.12 K | 0.00917
in methyl propionate, 283.19 K | 0.000428
in methyl propionate, 288.22 K | 0.000532
in methyl propionate, 293.23 K | 0.000651
in methyl propionate, 298.17 K | 0.000823
in methyl propionate, 303.23 K | 0.001
in methyl propionate, 308.14 K | 0.0012
in methyl propionate, 313.24 K | 0.00148
in methyl propionate, 318.16 K | 0.00182
in methyl propionate, 323.18 K | 0.00221
in n-butanol, 283.16 K | 0.00227
in n-butanol, 288.17 K | 0.0027
in n-butanol, 293.14 K | 0.00332
in n-butanol, 298.17 K | 0.00403
in n-butanol, 303.16 K | 0.00493
in n-butanol, 308.14 K | 0.00599
in n-butanol, 313.17 K | 0.00728
in n-butanol, 318.16 K | 0.00881
in n-butanol, 323.17 K | 0.0104
in n-butyl acetate, 283.17 K | 0.000327
in n-butyl acetate, 288.19 K | 0.000401
in n-butyl acetate, 293.2 K | 0.000494
in n-butyl acetate, 298.14 K | 0.000629
in n-butyl acetate, 303.19 K | 0.000779
in n-butyl acetate, 308.16 K | 0.000948
in n-butyl acetate, 313.14 K | 0.00113
in n-butyl acetate, 318.14 K | 0.00138
in n-butyl acetate, 323.2 K | 0.00167
in n-pentanol, 283.23 K | 0.00233
in n-pentanol, 288.23 K | 0.00286
in n-pentanol, 293.29 K | 0.00344
in n-pentanol, 298.5 K | 0.00408
in n-pentanol, 303.24 K | 0.00497
in n-pentanol, 308.02 K | 0.006
in n-pentanol, 313.08 K | 0.0072
in n-pentanol, 317.95 K | 0.00857
in n-pentanol, 322.74 K | 0.0103
in n-propanol, 283.13 K | 0.00239
in n-propanol, 288.18 K | 0.00289
in n-propanol, 293.27 K | 0.00351
in n-propanol, 298.53 K | 0.00421
in n-propanol, 303.33 K | 0.00517
in n-propanol, 308.23 K | 0.00617
in n-propanol, 313.37 K | 0.00729
in n-propanol, 318.35 K | 0.00856
in n-propanol, 323.26 K | 0.0104
in n-propyl acetate, 283.16 K | 0.000457
in n-propyl acetate, 288.24 K | 0.000548
in n-propyl acetate, 293.16 K | 0.000665
in n-propyl acetate, 298.18 K | 0.000819
in n-propyl acetate, 303.16 K | 0.001
in n-propyl acetate, 308.16 K | 0.00122
in n-propyl acetate, 313.18 K | 0.00146
in n-propyl acetate, 318.16 K | 0.00177
in n-propyl acetate, 323.16 K | 0.00214
in sec-butanol, 283.16 K | 0.0023
in sec-butanol, 288.17 K | 0.00294
in sec-butanol, 293.14 K | 0.00365
in sec-butanol, 298.16 K | 0.00444
in sec-butanol, 303.16 K | 0.0053
in sec-butanol, 308.14 K | 0.00642
in sec-butanol, 313.17 K | 0.00766
in sec-butanol, 318.16 K | 0.00914
in sec-butanol, 323.16 K | 0.0106
